From patent US12594307B2, “Compositions and methods of using inducible signaling for tunable dynamics in microbial communities” (priority 2019, dated 2026)
Entries after “also recorded” stand apart in the source; their conditions may differ.

Tests used:
[1] = system: iSLC and SLC strains co-culture; assay: co-culture of iSLC and SLC strains under a gradient of inducer concentrations (microfluidics); assay type: cell-based, E. coli
Text: The microscopy and microfluidics techniques used are similar to those previously reported. The microfluidic devices were constructed from PDMS (polydimethylsiloxane), which was molded and baked on a silicon wafer with micronscale features formed by crosslinked photoresist. Once the PDMS hardened, it was peeled off, and individual devices were cut out. In order to connect fluid lines to the device, holes where punched in correspondence of the inlets and outlets of the device. Afterwards, the devices were bonded onto glass slides using plasma activation. Before each experiment, the devices were left for 30 minutes in a vacuum chamber. Meanwhile, 1 mL of overnight cell culture was spun down by centrifugation and re-suspended in 10 μL of fresh media with appropriate antibiotics. After taking the device out of the vacuum chamber, a single droplet of resuspended cells was positioned in correspondence of the outlet opening. Similarly, droplets of sterile fresh media were placed in correspondence of the inlets openings. In all cases, 0.075% Tween20 was added to the medium to prevent cells from sticking to the PDMS walls. After all chip features were wetted, the fluids lines were plugged in and the height of the inlet was raised 10 to 40 cm above the device. The outlet syringe was instead placed at the same height of the device. For co-culturing experiments in FIG. 4, cells were cultured individually overnight and eventually spun down and re-suspended together (1:1 ratio) allowing for a single droplet to be loaded on the device. […] At 4× magnification fluorescence exposure times were 2 seconds at 30% intensity for both gfp and cfp while at 10× magnification they were 200 us at 30% intensity for both GFP and CFP. […]
(§1) Fluorescence intensity profiles were obtained by analyzing frames from the fluorescent channels. The mean fluorescence values were calculated by drawing a rectangle surrounding each trap individually and extracting the z-axis profile on ImageJ. Fluorescence values shown in FIG. 2 were normalized by dividing all data by a constant factor. […]

iSLC strain [2] = assay: iSLC strain population dynamics in microfluidic inducer gradient device; assay type: cell-based, E. coli
Procedure: (§2) The iSLC and SLC strains were both cultured in lysogeny broth (LB) media with 50 μg mL^−1 kanamycin, 34 μg mL^−1 chloramphenicol and 0.2% glucose for strains containing ColE1 origin and p15A origin plasmids in a 37° C. shaking incubator. Plasmid pTD103 RpaR-RpaI-LAA-sfGFP^21, ptD103-CFP were constructed by as described in previous studies (see, e.g., FIG. 11). Both plasmids pAM014 and pAM021 were obtained by inserting the 4CL2nt gene under the constitutive promoter J23106 from the Anderson promoter library. The 4CL2nt gene and the promoter were synthesized with overlapping PCR of long oligonucleotides (IDT). All plasmids were constructed by Gibson assembly followed by transformation into DH5α (Thermofisher) chemically competent E. coli. All plasmids were verified by Sanger sequencing before transformation into E. coli strain MG1655.
The microscopy and microfluidics techniques used are similar to those previously reported. The microfluidic devices were constructed from PDMS (polydimethylsiloxane), which was molded and baked on a silicon wafer with micronscale features formed by crosslinked photoresist. Once the PDMS hardened, it was peeled off, and individual devices were cut out. In order to connect fluid lines to the device, holes where punched in correspondence of the inlets and outlets of the device. Afterwards, the devices were bonded onto glass slides using plasma activation. […]

iSLC strain [3] = assay: iSLC kill switch induction in microfluidic traps; assay type: cell-based, E. coli; conditions: induction with 500 nM pCA after saturation of traps; 406 traps
Text: The microscopy and microfluidics techniques used are similar to those previously reported. The microfluidic devices were constructed from PDMS (polydimethylsiloxane), which was molded and baked on a silicon wafer with micronscale features formed by crosslinked photoresist. Once the PDMS hardened, it was peeled off, and individual devices were cut out. In order to connect fluid lines to the device, holes where punched in correspondence of the inlets and outlets of the device. Afterwards, the devices were bonded onto glass slides using plasma activation. Before each experiment, the devices were left for 30 minutes in a vacuum chamber. Meanwhile, 1 mL of overnight cell culture was spun down by centrifugation and re-suspended in 10 μL of fresh media with appropriate antibiotics. […] At 4× magnification fluorescence exposure times were 2 seconds at 30% intensity for both gfp and cfp while at 10× magnification they were 200 us at 30% intensity for both GFP and CFP. […]
as §1

iQS strain = iQS strain fluorescence response to pCA, microwell plate reader; assay type: cell-based, Escherichia Coli; conditions: FIG. 1D
Procedure: To design an exemplary iQS system, the two-step pathway which converts pCA into p-coumaroyl-HSL (pC-HSL) was genetically reconstructed through the production of the intermediate molecule p-coumaroyl-CoA (FIG. 1A). The first conversion is catalyzed by the p-coumaric acid-CoA ligase encoded by the 4CL2nt gene from the plant Nicotiana tabacum while the second step is catalyzed by the RpaI synthase. Additionally, superfolder green fluorescent protein (sfGFP) was added to be able to monitor the inducible dynamics. […] Escherichia Coli was chosen as the host chassis for the double plasmid circuit. The methods described in Example 1 are also applicable to Examples 2, 3, and 4.
as §2
(§3) For plate reader experiments, the appropriate strains were seeded from a −80° C. glycerol stock into 3 ml LB with 0.2% glucose and appropriate antibiotics and incubated in a 37° C. shaking incubator. The following day, 2 μL of overnight culture were added to 200 μL fresh media containing appropriate antibiotics in a standard Falcon tissue culture 96-well flat bottom plate. Cells were incubated at 37° C. shaking in a Tecan Infinite M200 Pro. Cells were grown for about 12 hours. The optical density at 600 nm absorbance was measured every 10 minutes.

wild type E. Coli strain = assay: wild type E. Coli growth curves in a range of p-coumaric acid concentrations (plate reader); assay type: cell-based; conditions: within the characterized concentration range; FIG. 1E
Procedure: as §3

lux QS system = assay: crosstalk of p-coumaric acid with the lux QS system, growth curves (plate reader); assay type: cell-based, E. coli; conditions: range of pCA concentrations; FIG. 9
Procedure: as §3
Experiments were performed to investigate the orthogonal properties of the iQS circuit by co-culturing the iSLC with a non-inducible SLC strain based on the lux QS system, one of the most commonly used and well understood QS systems in synthetic biology (FIG. 4A). […] Next, a previously described microfluidic chip was used (FIG. 2D and FIG. 7) to co-culture the iSLC and SLC strains (starting at 1:1 ratio) under a gradient of inducer concentrations. […] Without inducer, the quiescent iSLC strain was able to displace the SLC strain due to an advantage in population growth rate. At intermediate concentrations (15 nM), stable co-culture of both strains were maintained with independently sustained oscillations for more than 40 hours.

iSLC strain [4] = assay: cells survival assay (CFU count) of iSLC strain in liquid culture; assay type: cell-based, E. coli; conditions: 3 mL culture tubes, eight hours; 300 nM, 500 nM, 1 μM; independent of inducer concentration; FIG. 3D
Procedure: Cell viability assays to test the efficacy of iQS as a kill switch were done by measuring colony forming units (CFUs), following a protocol found in the literature. Cells were grown under survival conditions in LB with 0.2% glucose which inhibits the LuxI promoter thanks to the presence of a binding site for the CAP-CAMP activating complex. Following overnight growth, they were transferred into four cultures of fresh LB medium with 0.2% glucose, 300 nM p-coumaric acid, 500 nM p-coumaric acid and 1 μM p-coumaric acid, respectively. Samples were collected every 2 hours and serially diluted in PBS over a 7-log range and spotted (2 μL) onto LB agar plates with 0.2% glucose. The equations used arc: CFU/ml=(number of colonies)×(dilution factor)/0.002 mL, survival ratio (log 10)=log (CFU/ml with glucose)/(CFU/ml with p-coumaric acid).
Experiments were performed to investigate whether inducer concentrations could be modulated during culture to show the culture can switch between states of constant growth (circuit quiescence), synchronized oscillations in population density (cyclic cargo release) and inducible population death (kill switch). To confirm this principle, experiments were performed to test the ability to drive the population dynamics from state one (population growth) to state three (population death) through pCA induction (FIG. 3A). […]

SMILES: O=C(O)/C=C/c1ccc(O)cc1 [pCA, p-coumaric acid]
- duration of stable co-culture with independently sustained oscillations ([1]; 15 nM, starting 1:1 ratio): more than 40 hours
- co-culture outcome at high pCA concentration ([1]; 110 nM, starting 1:1 ratio): death of all iSLC cells
- co-culture outcome at inducer values higher than 340 nM ([1]; higher than 340 nM, FIG. 10): iSLC death and SLC takeover
- fraction of all microfluidics traps able to survive (iSLC strain [2]; high pCA concentrations 110 nM to 1 μM, universal cell lysis): < 3%
- average period of sustained synchronized oscillations (iSLC strain [2]; intermediate inducer concentration 15 nM): approximately 200 minutes
- microfluidic traps with cell death after synchronized lysis event (iSLC strain [3]): more than 97%
- iQS circuit behavior at intermediate inducer levels (iQS strain; 1 nM and 10 nM pCA): population-dependent switch-like behavior
- iQS circuit behavior at high inducer concentrations (iQS strain; 100 nM to 10 μM pCA): linear relationship between fluorescence expression and population density
- optical density threshold of steep increase in fluorescence signal (iQS strain; intermediate levels (1 nM and 10 nM) pCA): around 0.3
- toxicity to wild type E. Coli (growth curves) (wild type E. Coli strain): not toxic
- crosstalk with lux QS system / growth curves (lux QS system): absence of crosstalk; also recorded: growth curves are unaffected
- cell survival (CFU) (iSLC strain [4]): several order of magnitude decrease
